Assay results reported in patent US7414110B2, “Human calcium channel compositions and methods” (Merck & Co., Inc., priority 1990, dated 2008).

How the values were obtained:
α1B-2α2bβ1-2 = molecular target: T1, α1B-2α2bβ1-2 (Homo sapiens, UniProt Q00975, L2215R/Y99N); format: binding
T1 construct: Full-length DNA clones and corresponding RNA transcripts, encoding α1, including splice variants of α1A, α1D, α1B; expressed in transfected cells; host or cells: HEK293 cells, transient

α1B-2α2bβ1-3 = molecular target: T2, α1B-2α2bβ1-3 (Homo sapiens, UniProt Q00975, L2215R/Y99N); format: binding
T2 construct: Full-length DNA clones and corresponding RNA transcripts, encoding α1, including splice variants of α1A, α1D, α1B; expressed in transfected cells; host or cells: HEK293 cells, transient

α1B-1α2bβ1-3 = molecular target: T3, α1B-1α2bβ1-3 (Homo sapiens, UniProt Q00975, Y99N); format: binding
T3 construct: contains, in pcDNA1, a full-length coding region encoding α1B-1; expressed in transfected cells; host or cells: HEK293 cells, transient

α1B-1α2b = molecular target: T4, α1B-1α2b (Homo sapiens, UniProt Q00975, Y99N); format: binding
T4 construct: contains, in pcDNA1, a full-length coding region encoding α1B-1; expressed in transfected cells; host or cells: HEK293 cells, transient
T4 sequence (Q00975 whole entry Y99N): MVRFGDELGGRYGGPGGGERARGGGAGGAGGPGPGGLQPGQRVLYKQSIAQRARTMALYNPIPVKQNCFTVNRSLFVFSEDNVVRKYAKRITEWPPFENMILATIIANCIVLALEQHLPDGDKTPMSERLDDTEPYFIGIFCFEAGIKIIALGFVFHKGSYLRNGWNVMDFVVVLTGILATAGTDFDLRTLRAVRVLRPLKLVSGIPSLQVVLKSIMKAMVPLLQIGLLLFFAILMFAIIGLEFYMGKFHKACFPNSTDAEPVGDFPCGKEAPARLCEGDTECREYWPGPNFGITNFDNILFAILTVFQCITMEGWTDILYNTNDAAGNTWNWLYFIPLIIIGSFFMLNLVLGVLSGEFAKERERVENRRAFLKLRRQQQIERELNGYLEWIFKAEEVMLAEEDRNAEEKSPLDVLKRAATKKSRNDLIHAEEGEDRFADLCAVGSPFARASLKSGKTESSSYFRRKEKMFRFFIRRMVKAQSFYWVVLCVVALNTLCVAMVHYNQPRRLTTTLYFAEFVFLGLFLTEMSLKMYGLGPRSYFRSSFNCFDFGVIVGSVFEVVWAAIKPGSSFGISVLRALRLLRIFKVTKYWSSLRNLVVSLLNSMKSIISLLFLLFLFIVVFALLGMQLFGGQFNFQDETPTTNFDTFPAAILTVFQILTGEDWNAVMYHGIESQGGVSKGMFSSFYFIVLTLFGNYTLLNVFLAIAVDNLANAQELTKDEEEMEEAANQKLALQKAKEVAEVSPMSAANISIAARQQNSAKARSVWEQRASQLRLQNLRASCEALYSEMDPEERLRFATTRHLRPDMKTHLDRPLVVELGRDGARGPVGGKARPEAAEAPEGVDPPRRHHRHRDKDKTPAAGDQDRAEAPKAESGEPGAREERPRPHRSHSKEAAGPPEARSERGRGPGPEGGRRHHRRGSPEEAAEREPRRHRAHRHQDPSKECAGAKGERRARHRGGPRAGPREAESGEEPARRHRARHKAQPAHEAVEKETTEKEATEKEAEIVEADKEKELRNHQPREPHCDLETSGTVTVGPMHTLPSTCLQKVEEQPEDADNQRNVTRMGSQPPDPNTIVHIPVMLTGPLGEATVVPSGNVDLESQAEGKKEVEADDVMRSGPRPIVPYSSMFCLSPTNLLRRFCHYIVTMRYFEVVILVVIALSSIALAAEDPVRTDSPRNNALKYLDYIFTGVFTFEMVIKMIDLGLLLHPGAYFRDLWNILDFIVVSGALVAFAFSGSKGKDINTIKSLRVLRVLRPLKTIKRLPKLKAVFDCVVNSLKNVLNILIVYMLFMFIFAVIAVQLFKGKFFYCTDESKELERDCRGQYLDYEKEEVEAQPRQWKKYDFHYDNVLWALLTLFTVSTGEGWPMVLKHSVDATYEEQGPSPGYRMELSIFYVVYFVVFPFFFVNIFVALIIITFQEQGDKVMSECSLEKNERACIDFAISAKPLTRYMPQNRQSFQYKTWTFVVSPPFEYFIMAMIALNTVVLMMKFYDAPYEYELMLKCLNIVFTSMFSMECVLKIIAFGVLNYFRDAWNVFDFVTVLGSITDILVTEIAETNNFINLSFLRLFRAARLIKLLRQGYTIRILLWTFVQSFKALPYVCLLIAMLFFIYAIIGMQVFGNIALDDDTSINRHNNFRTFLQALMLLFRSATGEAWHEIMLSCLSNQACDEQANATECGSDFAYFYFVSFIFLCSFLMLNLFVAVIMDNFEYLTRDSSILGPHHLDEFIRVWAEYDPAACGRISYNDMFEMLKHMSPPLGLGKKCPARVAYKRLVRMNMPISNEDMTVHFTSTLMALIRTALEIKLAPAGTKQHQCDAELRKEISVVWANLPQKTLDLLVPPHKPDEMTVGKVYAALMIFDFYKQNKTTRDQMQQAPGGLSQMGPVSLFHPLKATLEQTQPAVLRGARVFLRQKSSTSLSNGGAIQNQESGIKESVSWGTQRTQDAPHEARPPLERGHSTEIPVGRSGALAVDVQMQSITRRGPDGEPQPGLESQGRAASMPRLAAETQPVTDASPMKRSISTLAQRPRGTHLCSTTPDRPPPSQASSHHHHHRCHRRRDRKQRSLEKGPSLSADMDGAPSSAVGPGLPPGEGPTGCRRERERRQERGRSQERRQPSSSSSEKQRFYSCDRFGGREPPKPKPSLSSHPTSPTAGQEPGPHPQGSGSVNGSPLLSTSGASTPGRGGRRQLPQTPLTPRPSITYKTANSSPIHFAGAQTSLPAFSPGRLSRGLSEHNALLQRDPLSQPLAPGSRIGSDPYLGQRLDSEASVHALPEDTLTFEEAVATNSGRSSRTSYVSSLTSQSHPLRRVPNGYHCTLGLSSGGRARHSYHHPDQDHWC
T4 sequence (as listed by the source partner): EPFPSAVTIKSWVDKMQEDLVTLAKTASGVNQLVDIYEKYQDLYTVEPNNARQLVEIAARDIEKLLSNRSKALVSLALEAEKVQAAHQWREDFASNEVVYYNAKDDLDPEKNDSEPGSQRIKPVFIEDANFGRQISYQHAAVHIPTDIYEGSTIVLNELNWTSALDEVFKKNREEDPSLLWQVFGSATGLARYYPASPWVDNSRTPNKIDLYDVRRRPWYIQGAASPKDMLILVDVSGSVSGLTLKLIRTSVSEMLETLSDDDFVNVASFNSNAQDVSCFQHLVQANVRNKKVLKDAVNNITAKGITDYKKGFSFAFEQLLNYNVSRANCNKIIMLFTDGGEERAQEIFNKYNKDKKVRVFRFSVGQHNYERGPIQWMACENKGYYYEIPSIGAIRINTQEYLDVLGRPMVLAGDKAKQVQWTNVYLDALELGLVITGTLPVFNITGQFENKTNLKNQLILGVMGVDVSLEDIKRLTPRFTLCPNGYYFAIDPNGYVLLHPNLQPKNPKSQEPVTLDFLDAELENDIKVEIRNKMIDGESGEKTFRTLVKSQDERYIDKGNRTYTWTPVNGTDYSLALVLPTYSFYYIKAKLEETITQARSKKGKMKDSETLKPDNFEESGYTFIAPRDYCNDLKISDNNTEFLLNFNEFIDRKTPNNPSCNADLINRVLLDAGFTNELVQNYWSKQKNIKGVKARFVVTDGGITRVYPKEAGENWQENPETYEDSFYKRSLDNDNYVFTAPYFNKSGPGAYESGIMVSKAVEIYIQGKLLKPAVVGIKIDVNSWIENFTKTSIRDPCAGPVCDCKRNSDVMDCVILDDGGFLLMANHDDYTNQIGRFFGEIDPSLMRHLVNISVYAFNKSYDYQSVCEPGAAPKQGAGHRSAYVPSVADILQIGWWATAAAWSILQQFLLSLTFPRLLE
T4 sequence (as listed by the source partner): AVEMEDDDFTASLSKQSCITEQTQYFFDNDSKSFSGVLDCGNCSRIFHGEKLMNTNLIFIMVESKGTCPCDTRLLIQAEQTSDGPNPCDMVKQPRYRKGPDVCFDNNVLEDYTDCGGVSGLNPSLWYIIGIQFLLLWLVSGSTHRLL

α1B-2α2b = molecular target: T5, α1B-2α2b (Homo sapiens, UniProt Q00975, L2215R/Y99N); format: binding
T5 construct: Full-length DNA clones and corresponding RNA transcripts, encoding α1, including splice variants of α1A, α1D, α1B; expressed in transfected cells; host or cells: HEK293 cells, transient

[1] = test system: subunit combinations lacking either the α1B-1 or the α1B-2 subunit
α1B-1α2bβ1-2 [2] = molecular target: T6, α1B-1α2bβ1-2 (Homo sapiens, UniProt Q00975, Y99N); format: binding
T6 construct: contains, in pcDNA1, a full-length coding region encoding α1B-1; expressed in transfected cells; host or cells: HEK293 cells, transient
Target sequence in this assay (Q00975 whole entry Y99N): as the sequence (Q00975 whole entry Y99N) above

α1B-1β1-3 = molecular target: T7, α1B-1β1-3 (Homo sapiens, UniProt Q00975, Y99N); format: binding
T7 construct: contains, in pcDNA1, a full-length coding region encoding α1B-1; expressed in transfected cells; host or cells: HEK293 cells, transient

α1B-2β1-3 = molecular target: T8, α1B-2β1-3 (Homo sapiens, UniProt Q00975, L2215R/Y99N); format: binding
T8 construct: Full-length DNA clones and corresponding RNA transcripts, encoding α1, including splice variants of α1A, α1D, α1B; expressed in transfected cells; host or cells: HEK293 cells, transient

α1B-2β1-2 = molecular target: T9, α1B-2β1-2 (Homo sapiens, UniProt Q00975, L2215R/Y99N); format: binding
T9 construct: Full-length DNA clones and corresponding RNA transcripts, encoding α1, including splice variants of α1A, α1D, α1B; expressed in transfected cells; host or cells: HEK293 cells, transient

α1B-2 = molecular target: T10, α1B-2 (Homo sapiens, UniProt Q00975, L2215R/Y99N); format: binding
T10 construct: Full-length DNA clones and corresponding RNA transcripts, encoding α1, including splice variants of α1A, α1D, α1B; expressed in transfected cells; host or cells: HEK293 cells, transient

α1B-1 = molecular target: T11, α1B-1 (Homo sapiens, UniProt Q00975, Y99N); format: binding
T11 construct: contains, in pcDNA1, a full-length coding region encoding α1B-1; expressed in transfected cells; host or cells: HEK293 cells, transient
T11 sequence (Q00975 whole entry Y99N): as above

α1B-1β1-2 = molecular target: T12, α1B-1β1-2 (Homo sapiens, UniProt Q00975, Y99N); format: binding
T12 construct: contains, in pcDNA1, a full-length coding region encoding α1B-1; expressed in transfected cells; host or cells: HEK293 cells, transient

[3] = test system: untransfected HEK 293 cells; experiment: whole-cell patch clamp, untransfected HEK 293 cells; format: cell-based, human; settings: with or without cAMP or forskolin
[4] = test system: human neuronal calcium channel α2 and β1 subunits; experiment: two-electrode voltage clamp, oöcytes injected with α2 and β1 transcripts; settings: n=11
α1B-1α2bβ1-2 [5] = molecular target: T6, α1B-1α2bβ1-2; format: cell-based
Target sequence in this assay (Q00975 whole entry Y99N): as above
Target sequence in this assay (as listed by the source partner): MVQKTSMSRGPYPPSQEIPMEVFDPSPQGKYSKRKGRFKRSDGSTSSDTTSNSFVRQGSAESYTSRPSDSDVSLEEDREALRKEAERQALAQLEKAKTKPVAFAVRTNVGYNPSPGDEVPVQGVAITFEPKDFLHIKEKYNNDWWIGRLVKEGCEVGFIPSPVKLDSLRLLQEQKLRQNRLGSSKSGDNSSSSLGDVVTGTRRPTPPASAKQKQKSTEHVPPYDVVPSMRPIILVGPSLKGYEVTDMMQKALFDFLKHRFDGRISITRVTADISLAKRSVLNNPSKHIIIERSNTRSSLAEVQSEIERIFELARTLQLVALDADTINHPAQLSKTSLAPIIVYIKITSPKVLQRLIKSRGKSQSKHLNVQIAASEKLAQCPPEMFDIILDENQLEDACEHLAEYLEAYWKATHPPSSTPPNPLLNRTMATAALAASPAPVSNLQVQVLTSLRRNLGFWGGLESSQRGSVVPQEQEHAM

[6] = molecular target: human neuronal calcium channel α1D and α2 subunits (Homo sapiens, UniProt Q01668, S1346F/Y1433H); experiment: two-electrode voltage clamp, oöcytes injected with α1D and α2 transcripts; settings: 15-30 nA currents; holding potential −90 mV
[7] = molecular target: human neuronal calcium channel α1D and β1 subunits (Homo sapiens, UniProt Q01668, S1346F/Y1433H); experiment: two-electrode voltage clamp, oöcytes injected with α1D and β1 transcripts; settings: two of four oöcytes; compared with α1D, α2, β1 oöcytes
[8] = test system: untransfected HEK293 cells
[9] = molecular target: T13, α1B-1, α2b and β1-2 subunits (Homo sapiens, UniProt Q00975, Y99N); format: binding
T13 construct: contains, in pcDNA1, a full-length coding region encoding α1B-1; expressed in transfected cells; host or cells: HEK293 cells, transient
T13 sequence (Q00975 whole entry Y99N): as the sequence (Q00975 whole entry Y99N) above

[10] = test system: cells transfected with only β-galactosidase-encoding DNA or α2bβ-encoding DNA
[11] = test system: calcium channels containing α1E subunits; format: cell-based, human

C[C@@H](O)[C@@H]1NC(=O)[C@H](Cc2ccc(O)cc2)NC(=O)[C@@H]2C[C@@H](O)CN2C(=O)[C@H](CC(N)=O)NC(=O)[C@@H]2CSSC[C@@H]3NC(=O)[C@H](CO)NC(=O)[C@H](CO)NC(=O)CNC(=O)[C@@H]4C[C@@H](O)CN4C(=O)[C@H](CO)NC(=O)[C@H](CCCCN)NC(=O)[C@@H](N)CSSC[C@H](NC(=O)[C@H](CSSC[C@@H](C(=O)N[C@@H](Cc4ccc(O)cc4)C(N)=O)NC(=O)[C@H](CCCNC(=N)N)NC(=O)[C@H](CCCCN)NC1=O)NC(=O)[C@H](CC(N)=O)NC(=O)[C@H](Cc1ccc(O)cc1)NC(=O)[C@H](CO)NC(=O)[C@H]([C@@H](C)O)NC(=O)[C@@H]1C[C@@H](O)CN1C(=O)[C@H](CO)NC3=O)C(=O)N[C@@H](CCCNC(=N)N)C(=O)N[C@@H](CO)C(=O)N2 [125I-ω-CgTx GVIA]
Bmax (sites/cell) (α1B-2α2bβ1-2): 19,371 ± 3,798 sites/cell | Bmax (sites/cell) (α1B-2α2bβ1-3): 37,652 ± 8,129 sites/cell | Bmax (sites/cell) (α1B-1α2bβ1-3): 91,004 ± 37,654 sites/cell | Bmax (sites/cell) (α1B-1α2b): 2,256 ± 356 sites/cell | Kd (pM) (α1B-2α2b): too low for reliable Scatchard analysis | detectable 125I-ω-CgTx GVIA binding [1]: ≤ 600 sites/cell | Bmax (sites/cell) (α1B-1α2bβ1-2 [2]): 45,324 ± 15,606 sites/cell | Bmax (sites/cell) (α1B-1β1-3): 8,729 ± 2,980 sites/cell | Bmax (sites/cell) (α1B-2β1-3): 2,944 ± 1,168 sites/cell | Bmax (sites/cell) (α1B-2β1-2): 2,126 ± 412 sites/cell | Kd (pM) (α1B-2): too low for reliable Scatchard analysis | Bmax (sites/cell) (α1B-1): 757 ± 128 sites/cell | number of binding sites (α1B-1): approximately 750 binding sites/cell | Bmax (sites/cell) (α1B-1β1-2): 5,756 ± 2,163 sites/cell

COC(=O)C1=C(C)NC(C)=C([N+](=O)[O-])C1c1ccccc1C(F)(F)F (stereo not drawn) [Bay K 8644]
effects of Bay K 8644 on currents [3]: No such effects | sensitivity of inward barium currents to Bay K 8644 [4]: insensitive | effect on IBa (α1B-1α2bβ1-2 [5]; n=4): no discernable effect | response of barium currents to Bay K 8644 [6]: little or no response | sensitivity of Ba2+ currents to Bay K 8644 [7]: similar

[Cd] [cadmium]
blockage of IBa (α1B-1α2bβ1-2 [5]; 50 μM): rapid, complete, and reversible

C[C@@H](O)[C@@H]1NC(=O)[C@H](Cc2ccc(O)cc2)NC(=O)[C@@H]2C[C@@H](O)CN2C(=O)[C@H](CC(N)=O)NC(=O)[C@@H]2CSSC[C@@H]3NC(=O)[C@H](CO)NC(=O)[C@H](CO)NC(=O)CNC(=O)[C@@H]4C[C@@H](O)CN4C(=O)[C@H](CO)NC(=O)[C@H](CCCCN)NC(=O)[C@@H](N)CSSC[C@H](NC(=O)[C@H](CSSC[C@@H](C(=O)N[C@@H](Cc4ccc(O)cc4)C(N)=O)NC(=O)[C@H](CCCNC(=N)N)NC(=O)[C@H](CCCCN)NC1=O)NC(=O)[C@H](CC(N)=O)NC(=O)[C@H](Cc1ccc(O)cc1)NC(=O)[C@H](CO)NC(=O)[C@H]([C@@H](C)O)NC(=O)[C@@H]1C[C@@H](O)CN1C(=O)[C@H](CO)NC3=O)C(=O)N[C@@H](CCCNC(=N)N)C(=O)N[C@@H](CO)C(=O)N2 [ωCgTX]
detectable ω-CgTx GVIA binding sites [8]: do not express detectable | block of activity (α1B-1α2bβ1-2 [5]): blocked the activity completely | block of channels (α1B-1α2bβ1-2 [5]): blocked irreversibly | time to complete block (α1B-1α2bβ1-2 [5]): ≤ 2 min | binding capacity (Bmax) [9]: 28,710±11,950 sites per cell | specific binding [10]: no specific binding

ω-Aga-IVA: funnel web spider toxin that blocks certain high voltage activated channels (KKKCIAKDYGRCKWGGTPCCRGRGCICSIMGTNCECKPRLIMEGLGLA)
sensitivity of channels containing α1E subunits [11]: sensitive
